target: T1, human RXFP1 (Homo sapiens, UniProt Q9HBX9); assay: RXFP1 cAMP assay (hRXFP1 HEK293 cAMP assay, HTRF); assay type: cell-based; conditions: HEK293 cells stably expressing human RXFP1, 30 min at room temperature, read-out: cAMP hRXFP1 HEK293 Assay EC50
T1 construct: expressed in transfected cells
T1 sequence (Q9HBX9 1-757): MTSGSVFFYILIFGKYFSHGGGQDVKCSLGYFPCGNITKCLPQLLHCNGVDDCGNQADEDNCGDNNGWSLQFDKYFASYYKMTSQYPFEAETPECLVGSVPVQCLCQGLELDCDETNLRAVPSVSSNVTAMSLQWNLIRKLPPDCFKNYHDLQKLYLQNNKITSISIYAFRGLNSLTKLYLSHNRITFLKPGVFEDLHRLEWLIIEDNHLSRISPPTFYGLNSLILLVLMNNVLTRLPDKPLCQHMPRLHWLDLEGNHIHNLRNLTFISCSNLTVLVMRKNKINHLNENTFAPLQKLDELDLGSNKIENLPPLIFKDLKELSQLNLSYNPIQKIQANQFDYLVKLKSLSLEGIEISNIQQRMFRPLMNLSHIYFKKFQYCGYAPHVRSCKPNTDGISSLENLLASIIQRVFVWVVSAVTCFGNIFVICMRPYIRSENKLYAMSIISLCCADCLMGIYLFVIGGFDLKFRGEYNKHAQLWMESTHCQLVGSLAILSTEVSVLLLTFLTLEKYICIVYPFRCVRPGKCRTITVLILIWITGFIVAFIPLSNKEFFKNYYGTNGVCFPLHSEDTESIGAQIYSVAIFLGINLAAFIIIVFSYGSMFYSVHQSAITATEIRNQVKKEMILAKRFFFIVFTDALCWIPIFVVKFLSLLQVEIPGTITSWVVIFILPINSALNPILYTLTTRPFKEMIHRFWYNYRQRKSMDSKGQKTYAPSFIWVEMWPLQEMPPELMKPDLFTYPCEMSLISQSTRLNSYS
Description: RXFP1 Cyclic Adenosine Monophosphate (cAMP) Assays. […] Cells were dissociated and suspended in assay buffer. The assay buffer was HBSS buffer (with calcium and magnesium) containing 20 mM HEPES, 0.05% BSA, and 0.5 mM IBMX. Cells (3000 cells per well, except 1500 cell per well for HEK293 cells stably expressing human RXFP1) were added to 384-well Proxiplates (Perkin-Elmer). Cells were immediately treated with test compounds in DMSO (2% final) at final concentrations in the range of 0.010 nM to 50 μM. Cells were incubated for 30 min at room temperature. The level of intracellular cAMP was determined using the HTRF HiRange cAMP assay reagent kit (Cisbio) according to manufacturer's instructions. Solutions of cryptate conjugated anti-cAMP and d2 fluorophore-labelled cAMP were made in a supplied lysis buffer separately. Upon completion of the reaction, the cells were lysed with equal volume of the d2-cAMP solution and anti-cAMP solution. […] The potency and activity of a compound to […] cAMP production was then determined by fitting to a 4-parametric logistic equation from a plot of cAMP level versus compound concentrations.

SMILES	EC50
COc1cc(F)c(F)cc1C(=O)N[C@@H]1C2CCC(/C2=C/c2ccc(C#N)cc2)[C@@H]1C(=O)Nc1ccc(F)c(C(F)(F)F)c1 (stereo partly shown) [compound 62]	710 nM
COc1ccc(C2=NOC3C(O)CC(O)C23)cc1C(=O)N[C@H]1[C@@H](C(=O)Nc2ccc(F)c(C(F)(F)F)c2)[C@H]2CC[C@@H]1/C2=C\C1CC1 (stereo partly drawn) [Example 413, (1R,2S,3R,4R,Z)-7-(cyclopropylmethylene)-3-(5-(4,6-dihydroxy-3a,5,6,6a-tetrahydro-4H-cyclopenta[d]isoxazol-3-yl)-2-methoxybenzamido)-N-(4-fluoro-3-(trifluoromethyl)phenyl)bicyclo[2.2.1]heptane-2-carboxamide]	39 nM
COc1ccc(C2=NOC3COCC23)cc1C(=O)N[C@H]1[C@@H](C(=O)N[C@@H](C)C(C)(C)C)[C@H]2CC[C@@H]1/C2=C\C1CC1 (stereo partly shown) [compound 541]	30 nM
COc1ccc(C2=NOC(C3(O)CC3)C2)cc1C(=O)N[C@H]1[C@@H](C(=O)NCC(C)(C)C)[C@H]2CC[C@@H]1/C2=C\C1CC1 (stereo partly shown) [compound 618]	155 nM
COc1ccc(-c2ccc(C(=O)O)cc2)cc1C(=O)N[C@@H]1C2CCC(/C2=C/C2CC2)[C@@H]1C(=O)Nc1ccc(F)c(C(F)(F)F)c1 (stereo partly shown) [compound 167]	16 nM
COc1ccc(-c2ccc(C(=O)O)cc2)cc1C(=O)N[C@H]1[C@@H](C(=O)Nc2ccc(F)c(C(F)(F)F)c2)[C@H]2CC[C@@H]1/C2=C/c1ccccc1 [compound 94]	400 nM
COc1cc(F)c(F)cc1C(=O)N[C@@H]1C2CCC(/C2=C/c2ccccc2C#N)[C@@H]1C(=O)Nc1ccc(F)c(C(F)(F)F)c1 (stereo partly shown) [compound 68]	3200 nM
COc1ccc(C2=NOC3COCC23)cc1C(=O)N[C@H]1[C@@H](C(=O)NCc2ccccc2OC(F)F)[C@H]2CC[C@@H]1/C2=C\C1CC1 (stereo partly shown) [compound 624]	169 nM
COc1ccc(C2=NOC(C(=O)O)C2)cc1C(=O)N[C@H]1[C@@H](C(=O)Nc2ccc(F)c(C(F)(F)F)c2)[C@H]2CC[C@@H]1/C2=C\C1CC1 (mixture of isomers) [Example 384, 3-(3-(((1R,2R,3S,4R,Z)-7-(cyclopropylmethylene)-3-((4-fluoro-3-(trifluoromethyl)phenyl)carbamoyl)bicyclo[2.2.1]heptan-2-yl)carbamoyl)-4-methoxyphenyl)-4,5-dihydroisoxazole-5-carboxylic acid]	123 nM
COc1cc(F)c(F)cc1C(=O)N[C@@H]1C2CCC(C2=C(C)C)[C@]1(F)C(=O)Nc1ccc(F)c(C(F)(F)F)c1 (stereo partly shown) [Example 51]	790 nM
COCC1CC(c2ccc(OC)c(C(=O)N[C@H]3[C@@H](C(=O)Nc4ccc(F)c(C(F)(F)F)c4)[C@H]4CC[C@@H]3C4=CC3CC3)c2)=NO1 (stereo partly shown) [compound 551]	36.6 nM
COc1ccc(Br)cc1C(=O)N[C@@H]1C2CCC(/C2=C\c2ccccc2)[C@@H]1C(=O)Nc1ccc(F)c(C(F)(F)F)c1 (stereo partly shown) [Example 78]	1900 nM
COc1cc(F)c(F)cc1C(=O)N[C@@H]1C2CCC(/C2=C/c2cnn(C)c2)[C@@H]1C(=O)Nc1ccc(F)c(C(F)(F)F)c1 (stereo partly shown) [compound 66]	1700 nM
COCCOc1ccc(-c2cc(C(=O)O)ccc2F)cc1C(=O)N[C@@H]1C2CCC(/C2=C/C2CC2)[C@@H]1C(=O)Nc1ccc(F)c(C(F)(F)F)c1 (stereo partly shown) [compound 200]	37 nM
COc1ccc(-c2cccnc2F)cc1C(=O)N[C@H]1[C@@H](C(=O)Nc2ccc(F)c(C(F)(F)F)c2)[C@H]2CC[C@@H]1/C2=C/c1ccccc1 [compound 95]	420 nM
COc1ccc(C2=NOC3CC(C(C)(C)O)CC23)cc1C(=O)N[C@H]1[C@@H](C(=O)Nc2ccc(F)c(C(F)(F)F)c2)[C@H]2CC[C@@H]1/C2=C\C1CC1 (single isomer, unassigned) [compound 579]	71.6 nM
COc1ccc(C2=NOC3COCC23)cc1C(=O)N[C@H]1[C@@H](C(=O)NC2CCCC2)[C@H]2CC[C@@H]1/C2=C\C1CC1 (stereo partly shown) [Example 565]	50.7 nM
COc1ccc(-n2nccc2C(=O)O)cc1C(=O)N[C@@H]1C2CCC(/C2=C/C(F)(F)F)[C@@H]1C(=O)Nc1ccc(F)c(C(F)(F)F)c1 (stereo partly shown) [compound 345]	1400 nM
COc1ccc(-c2cc(C(OC(=O)N3CCC3)C(F)(F)F)ccc2F)cc1C(=O)N[C@@H]1C2CCC(/C2=C/C2CC2)[C@@H]1C(=O)Nc1ccc(F)c(C(F)(F)F)c1 (stereo partly shown) [compound 216]	2 nM
COc1ccc(-c2ccc(C(=O)O)cc2F)cc1C(=O)N[C@@H]1C2CCC(/C2=C/C(F)(F)F)[C@@H]1C(=O)Nc1ccc(F)c(C(F)(F)F)c1 (stereo partly shown) [compound 293]	32 nM
COc1ccc(-c2cc(C(=O)N3CCC(O)CC3)on2)cc1C(=O)N[C@H]1[C@@H](C(=O)Nc2ccc(F)c(C(F)(F)F)c2)[C@H]2CC[C@@H]1/C2=C\C1CC1 [Example 594]	91.4 nM
COc1cc(F)c(F)cc1C(=O)N[C@@H]1C2CCC(/C2=C/c2cccc(OCC(F)(F)F)c2)[C@@H]1C(=O)Nc1ccc(F)c(C(F)(F)F)c1 (stereo partly shown) [compound 28]	400 nM
COc1ccc(-c2cc(C(=O)N3CCCC3)ccc2F)cc1C(=O)N[C@@H]1C2CCC(/C2=C/c2cnoc2)[C@@H]1C(=O)Nc1ccc(F)c(C(F)(F)F)c1 (stereo partly shown) [compound 191]	42 nM

The next lines start with the values.

EC50	SMILES
5.3 nM	COc1ccc(-c2cc(C3=NOC4CC(CO)CC34)ccc2F)cc1C(=O)N[C@H]1[C@@H](C(=O)Nc2ccc(F)c(C(F)(F)F)c2)[C@H]2CC[C@@H]1/C2=C\C1CC1 (stereo partly shown) [compound 954]
1.8 nM	COc1ccc(C2=NOC3CC(O)(C(F)(F)F)CC23)cc1C(=O)N[C@H]1[C@@H](C(=O)N[C@H](C)C2(C)CC2)[C@H]2CC[C@@H]1/C2=C\C1CC1 (stereo partly shown) [compound 859]
481 nM	COc1ccc(C2=NOC3C(O)CC(O)C23)cc1C(=O)N[C@H]1[C@@H](C(=O)Nc2ccc(F)c(C(F)(F)F)c2)[C@H]2CC[C@@H]1/C2=C\C1CC1 (single isomer, unassigned) [compound 674]
1.7 nM	COc1ccc(-c2cc(C(OC(=O)NC3CCC3)C(=O)O)ccc2F)cc1C(=O)N[C@H]1[C@@H](C(=O)Nc2ccc(F)c(C(F)(F)F)c2)[C@H]2CC[C@@H]1/C2=C\C(C)C (stereo partly shown) [compound 938]
8.5 nM	COc1ccc(-c2cccc3c2CN(C(=O)C(C)(C)O)C3)cc1C(=O)N[C@@H]1C2CCC(/C2=C/C2CC2)[C@@H]1C(=O)Nc1ccc(F)c(C(F)(F)F)c1 (stereo partly shown) [compound 889]
2.6 nM	COc1ccc(C2=NO[C@H]3C[C@H](CO)C[C@@H]23)cc1C(=O)N[C@H]1[C@@H](C(=O)N[C@H](C)C2(C)CC2)[C@H]2CC[C@@H]1/C2=C\C1CC(F)(F)C1 [compound 823]
2.8 nM	COc1ccc(C2=NOC3CC(C(=O)O)CC23)cc1C(=O)N[C@H]1[C@@H](C(=O)Nc2ccc(F)c(C(F)(F)F)c2)[C@H]2CC[C@@H]1/C2=C\C1CC1 (stereo partly shown) [compound 851]
212 nM	COc1ccc(N2C[C@H](O)CC2=O)cc1C(=O)N[C@H]1[C@@H](C(=O)Nc2ccc(F)c(C(F)(F)F)c2)[C@H]2CC[C@@H]1/C2=C\C1CC1 [compound 639]
0.9 nM	COc1ccc(-c2cc(S(=O)(=O)NC(C)(C)C)ccc2F)cc1C(=O)N[C@H]1[C@@H](C(=O)Nc2ccc(F)c(C(F)(F)F)c2)[C@H]2CC[C@@H]1/C2=C\C1CCCC1 [compound 958]
1.4 nM	COc1ccc(-c2cc(C(OC(=O)NC3CCC3)C(=O)O)ccc2F)cc1C(=O)N[C@H]1[C@@H](C(=O)Nc2ccc(F)c(C(F)(F)F)c2)[C@H]2CC[C@@H]1/C2=C\C1CCCC1 (stereo partly shown) [compound 936]
4.4 nM	COc1c(F)cc(C2=NOC3CC(CO)CC23)cc1C(=O)N[C@H]1[C@@H](C(=O)NC23CC(C#N)(C2)C3)[C@H]2CC[C@@H]1/C2=C\C1CC1 (stereo partly shown) [compound 775]
0.1 nM	COc1ccc(-c2cc([C@H](NC(=O)C3CCOCC3)C(F)(F)F)ccc2F)cc1C(=O)N[C@H]1[C@@H](C(=O)Nc2ccc(F)c(C(F)(F)F)c2)[C@H]2CC[C@@H]1/C2=C\C1CCCC1 [compound 955]
3.6 nM	COc1ccc(-c2ccc(C(=O)O)cc2F)cc1C(=O)N[C@H]1[C@@H](C(=O)Nc2ccc(F)c(C(F)(F)F)c2)[C@H]2CC[C@@H]1/C2=C\C1CC(F)(F)C1 [compound 919]
3.5 nM	COc1ccc(-c2cc(C3=NOC4CC(O)CC34)ccc2F)cc1C(=O)N[C@H]1[C@@H](C(=O)Nc2ccc(F)c(C(F)(F)F)c2)[C@H]2CC[C@@H]1/C2=C\C1CC1 (stereo partly shown) [compound 908]
